Test results taken from patent US12502355B2, “Solid pharmaceutical formulations of 6-(2-chloro-6-methylpyridin-4-yl)-5-(4-fluorophenyl)-1,2,4-triazin-3-amine” (AstraZeneca AB, priority 2019, dated 2025).
≈ marks a conversion by molar mass, not a printed value.

Key:
Format in all cases: physicochemical
log P of Compound 1 = test: log P of Compound 1
[1] = Solubility screens for formulation strategies (lipidic, mesoporous silica, spray drying)
Description: The inventors investigated multiple strategies to make an effective solid formulation, including: • Conventional immediate release tablets. […] Screen of co-crystal former molecules was unsuccessful in identifying a suitable co-crystal form. • Lipid formulation: Compound 1 is a neutral molecule, and not lipophilic.

physchem [2] = test: physchem
physchem [3] = test: physchem; remark: listed apart in the source

- logP (log P of Compound 1): 2.8
- solubility in solvents suitable for spray drying [1]: limited solubility
- solubility in suitable solvent for mesoporous silica formulation [1]: inadequate
- solubility in suitable excipients for a lipidic formulation ([1]; lipidic screen): did not show significant solubility
- solubility (physchem [2]; fassif): 5.8 µg/mL (≈ 18.4 µM)
- solubility (physchem [2]; pH 1.2, simulated gastric fluid): 29.8 µg/mL (≈ 94.4 µM)
- solubility (physchem [2]; pH 7, aqueous buffer): < 5 µg/mL
- pKa (physchem [3]): 1.78
Structure (SMILES): Cc1cc(-c2nnc(N)nc2-c2ccc(F)cc2)cc(Cl)n1 [Compound 1, 6-(2-chloro-6-methylpyridin-4-yl)-5-(4-fluorophenyl)-1,2,4-triazin-3-amine]
